The subject of this test is HCV Huh-luc/neo-ET replicon cells. The test can be described thus: Luciferase-Based HCV Replicon Assay (EC50 (1b)). It is filed as cell-based. The following applies: Hepatitis C virus. The protocol:
Luciferase-Based HCV Replicon Assay Protocol (EC50 (1b))
The cell culture component of the assay is performed essentially as described by Bartenschlager et al., Hepatology 2002, 35, 694-703, wherein exponentially growing HCV Huh-luc/neo-ET replicon cells were seeded at 6×10^3 cells/well in 96 well assay plate. 24 hours later the cells were treated with various concentrations of compound or combination of compounds in triplicate using both fixed ratios and checkerboard matrices of test agents and cultured for 72 hours. The luciferase activity in the wells was determined using Bright-Glo reagent (Promega, Madison, Wis.) with a luminometer (Wallac 1420 Multilabel HTS Counter Victor 2). The background control was replicon cells treated with 100 nM BILN-2061, an inhibitor of the HCV protease. % Inhibition was determined for each compound concentration in relation to the negative (no compound) control to calculate the EC50(1b).

Setting [1] is: HCV Huh-luc/neo-ET replicon cells, 72 hours, luciferase activity, read-out: EC50 (1b).
Setting [2] is: HCV Huh-luc/neo-ET replicon cells, 72 hours, luciferase activity, read-out: EC50(1b) concentration.

The structures appear in SMILES notation. Where two headings read alike, the source gives them in different places. Some results are limits rather than exact numbers.

On to `Cc1ccccc1CN1C(=O)C(C2=Nc3ccc(NS(C)(=O)=O)cc3S(=O)(=O)N2)=C(O)[C@@H]2[C@@H]3CC[C@@H](C3)[C@@H]21` [Example 29, N-{3-[(1S,2S,7R,8R)-6-Hydroxy-3-(2-methyl-benzyl)-4-oxo-3-aza-tricyclo[6.2.1.0^2,7]undec-5-en-5-yl]-1,1-dioxo-1,2-dihydro-1λ^6-benzo[1,2,4]thiadiazin-7-yl}-methanesulfonamide], for which the EC50 runs as follows: under setting [1], 0.005 to 0.025 µM; under setting [2], less than 0.025 µM.

In the case of `CS(=O)(=O)Nc1ccc2c(c1)S(=O)(=O)NC(C1=C(O)[C@@H]3C4CCC(CC4)[C@@H]3N(Cc3ccc(F)c(F)c3F)C1=O)=N2` [Example 18, N-{3-[(2S,7R)-6-Hydroxy-4-oxo-3-(2,3,4-trifluoro-benzyl)-3-aza-tricyclo[6.2.2.0^2,7]dodec-5-en-5-yl]-1,1-dioxo-1,2-dihydro-1λ^6-benzo[1,2,4]thiadiazin-7-yl}-methanesulfonamide], the EC50 reads like this: under setting [1], 0.005 to 0.025 µM; under setting [2], less than 0.025 µM.

As for `COc1cccc(CN2C(=O)C(C3=NS(=O)(=O)c4cc(NS(C)(=O)=O)ccc4N3)=C(O)[C@@H]3C4CCC(CC4)[C@@H]32)c1` [Example 3, N-{3-[(2S,7R)-6-Hydroxy-3-(3-methoxy-benzyl)-4-oxo-3-aza-tricyclo[6.2.2.0^2,7]dodec-5-en-5-yl]-1,1-dioxo-1,4-dihydro-1λ^6-benzo[1,2,4]thiadiazin-7-yl}-methanesulfonamide], the EC50 was less than 0.005 µM under setting [1] and less than 0.025 µM under setting [2].

Turning to `CS(=O)(=O)Nc1ccc2c(c1)S(=O)(=O)NC(C1=C(O)[C@@H]3C4CCC(CC4)[C@@H]3N(Cc3cccc(F)c3)C1=O)=N2` [Example 14, N-{3-[(2S,7R)-3-(3-Fluoro-benzyl)-6-hydroxy-4-oxo-3-aza-tricyclo[6.2.2.0^2,7]dodec-5-en-5-yl]-1,1-dioxo-1,2-dihydro-1λ^6-benzo[1,2,4]thiadiazin-7-yl}-methanesulfonamide], the EC50 was less than 0.005 µM under setting [1] and less than 0.025 µM under setting [2].

As to `CS(=O)(=O)Nc1ccc2c(c1)S(=O)(=O)N=C(C1=C(O)C3C4CCC(C4)C3N(Cc3ccc(F)c(Cl)c3)C1=O)N2` [Example 2, N-{3-[(1S,2S,7R,8R)-3-(Chloro-4-fluoro-benzyl)-6-hydroxy-4-oxo-3-aza-tricyclo[6.2.1.0^2,7]undec-5-en-5-yl]-1,1-dioxo-1,4-dihydro-1λ^6-benzo[1,2,4]thiadiazin-7-yl}-methanesulfonamide], the EC50 was less than 0.005 µM (Huh-luc/neo-ET, 72 h, read-out: EC50 (1b)) and less than 0.025 µM (Huh-luc/neo-ET, 72 h, read-out: EC50(1b) concentration).

Consider `Cc1ccccc1CN1C(=O)C(C2=Nc3ccc(NS(C)(=O)=O)cc3S(=O)(=O)N2)=C(O)[C@@H]2C3CCC(CC3)[C@@H]21` [Example 17, N-{3-[(2S,7R)-6-Hydroxy-3-(2-methyl-benzyl)-4-oxo-3-aza-tricyclo[6.2.2.0^2,7]dodec-5-en-5-yl]-1,1-dioxo-1,2-dihydro-1λ^6-benzo[1,2,4]thiadiazin-7-yl}-methanesulfonamide], for which the EC50 reads like this: under setting [1], 0.005 to 0.025 µM; under setting [2], less than 0.025 µM.

Take `CS(=O)(=O)Nc1ccc2c(c1)S(=O)(=O)N=C(C1=C(O)[C@@H]3C4CCC(CC4)[C@@H]3N(Cc3ccc(F)cc3Cl)C1=O)N2` [Example 5, N-{3-[(2S,7R)-3-(2-Chloro-4-fluoro-benzyl)-6-hydroxy-4-oxo-3-aza-tricyclo[6.2.2.0^2,7]dodec-5-en-5-yl]-1,1-dioxo-1,4-dihydro-1λ^6-benzo[1,2,4]thiadiazin-7-yl}-methanesulfonamide]: the EC50 by setting is: under setting [1], 0.005 to 0.025 µM; under setting [2], less than 0.025 µM.

On to `COc1cc(CN2C(=O)C(C3=NS(=O)(=O)c4cc(NS(C)(=O)=O)ccc4N3)=C(O)[C@@H]3C4CCC(CC4)[C@@H]32)ccc1F` [Example 7, N-{3-[(2S,7R)-3-(4-Fluoro-3-methoxy-benzyl)-6-hydroxy-4-oxo-3-aza-tricyclo[6.2.2.0^2,7]dodec-5-en-5-yl]-1,1-dioxo-1,4-dihydro-1λ^6-benzo[1,2,4]thiadiazin-7-yl}-methanesulfonamide], for which the EC50 was less than 0.005 µM under setting [1] and less than 0.025 µM under setting [2].

These data come from patent US8129368B2, “5,6-dihydro-1H-pyridin-2-one compounds” (priority 2008, dated 2012).
